According to patent publication US12642270B2, “Substituted thiophene carboxamides, thiophene carboxylic acids and derivatives thereof” (Bayer Aktiengesellschaft, priority 2019, dated 2026):

Experiment: Log P by HPLC on reversed phase columns (EEC directive 79/831 Annex V.A8)
Format: physicochemical
Settings: for chromatographic logP: reversed phase HPLC columns, value in preparation example, method not marked
Procedure, shortened: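 Values come from retention times calibrated against alkan-2-ones (3–16 carbons) by linear interpolation, using reversed-phase LC-UV per EEC directive 79/831 Annex V.A8. Acetonitrile gradient 10–95% with 0.1% formic acid [a], 0.001 M ammonium acetate [b] or 0.1% phosphoric acid [c]; several values within one method separated by "+".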

[1] = method marker [a] given with each value, Table 1.1, compounds of formula (I)
[2] = method [a]: LC-UV, acidic range, 0.1% formic acid in water and acetonitrile

SMILES | LogP [1] | further results
Cc1c(C(=O)NC2(C(=O)OCC(C)C)CC2)sc(C#N)c1Br [1.0970] | 3.33^[a] | 
Cc1c(C(=O)NC2(C(=O)OC(C)(C)C)CC2)sc(C#N)c1Br [1.0971] | 3.28^[a] | 
CCCCOC(=O)CNC(=O)c1sc(C#N)c(Br)c1C [1.0972] | 3.23^[a] | 
Cc1c(C(=O)NCC(=O)OCc2ccccc2)sc(C#N)c1Br [1.0973] | 3.26^[a] | 
CCOC(=O)C(NC(=O)c1sc(C#N)c(Br)c1C)C1CC1 (stereo not drawn) [1.0974] | 3.15^[a] | 
Cc1c(C(=O)NC2(C(=O)OCc3ccccc3)CC2)sc(C#N)c1Br [1.0975] | 3.39^[a] | 
CNC(=S)C1(NC(=O)c2sc(Br)c(Br)c2F)CC1 [1.0976] | 2.82^[a] | 
CN(C)C(=S)C1(NC(=O)c2sc(Br)c(Br)c2F)CC1 [1.0977] | 2.93^[a] | 
COC(=O)C1(NC(=O)c2sc(Cl)c(C)c2Cl)CC1 [1.0978] | 2.86^[a] | 
COC(=O)C1(NC(=O)c2sc(Br)c(Br)c2F)CCC1 [1.0979] | 3.32^[a] | 
Cc1c(C(=O)NC2(C(=O)OC3CCCC3)CC2)sc(C#N)c1Br [1.0980] | 3.36^[a] | 
Cc1c(C(=O)NCC(=O)OC(C)(C)C)sc(C#N)c1Br [1.0981] | 3.14^[a] | 
Cc1c(C(=O)NCC(=O)OCC2CC2)sc(C#N)c1Br [1.0982] | 2.86^[a] | 
CCCOC(=O)CNC(=O)c1sc(Br)c(Br)c1Cl [1.0983] | 3.76^[a] | 
N#CCCOC(=O)CNC(=O)c1sc(Br)c(Br)c1Cl [1.0984] | 2.76^[a] | 
O=C(CNC(=O)c1sc(Br)c(Br)c1Cl)OCC1CC1 [1.0985] | 3.79^[a] | 
CC(C)(C)OC(=O)CNC(=O)c1sc(Br)c(Br)c1Cl [1.0986] | 4.20^[a] | 
CCCCOC(=O)CNC(=O)c1sc(Br)c(Br)c1Cl [1.0987] | 4.22^[a] | 
O=C(CNC(=O)c1sc(Br)c(Br)c1Cl)OC1CCCC1 [1.0988] | 4.28^[a] | 
O=C(CNC(=O)c1sc(Br)c(Br)c1Cl)Oc1ccccc1 [1.0989] | 3.93^[a] | 
O=C(CNC(=O)c1sc(Br)c(Br)c1Cl)OCc1ccccc1 [1.0990] | 4.15^[a] | 
CCOC(=O)C(NC(=O)c1sc(Br)c(Br)c1Cl)C1CC1 (stereo not drawn) [1.0991] | 4.34^[a] | 
C#CCOC(=O)CNC(=O)c1sc(C#N)c(Br)c1C [1.0992] | 2.43^[a] | 
Cc1c(C(=O)NCC(=O)OC2CC2)sc(C#N)c1Br [1.0993] | 2.54^[a] | 

SMILES | LogP [1] | further results
C=CCOC(=O)CNC(=O)c1sc(C#N)c(Br)c1C [1.0994] | 2.65^[a] | 
CCCOC(=O)CNC(=O)c1sc(C#N)c(Br)c1C [1.0995] | 2.81^[a] | 
Cc1c(C(=O)NCC(=O)OCCC#N)sc(C#N)c1Br [1.0996] | 2.09^[a] | 
O=C(CNC(=O)c1sc(Br)c(Br)c1Cl)SCc1ccccc1 [1.0997] | 4.62^[a] | 
CCSC(=O)C(NC(=O)c1sc(Br)c(Br)c1Cl)C(C)C (stereo not drawn) [1.0998] | 5.45^[a] | 
CCOC(=O)CNC(=S)c1sc(Br)c(Br)c1F [1.0999] | 4.23^[a] | 
CC(C)COC(=O)CNC(=O)c1sc(Br)c(Br)c1F [1.1000] | 3.88^[a] | 
CNC(=S)CNC(=O)c1sc(Br)c(Br)c1F [1.1001] | 2.56^[a] | 
CN(C)C(=S)CNC(=O)c1sc(Br)c(Br)c1F [1.1002] | 3.19^[a] | 
COC(=O)C1(NC(=O)c2sc(Cl)c(Br)c2Cl)CCC1 [1.1003] | 3.74^[a] | 
COC(=O)C1(NC(=O)c2sc(Cl)c(Cl)c2Br)CCC1 [1.1004] | 3.85^[a] | 
O=C(CNC(=O)c1sc(Br)c(Br)c1F)OC1CSC1 [1.1007] | 3.37^[a] | 
N#CCOC(=O)CNC(=O)c1sc(Br)c(Br)c1F [1.1008] | 2.67^[a] | 
CC(C)C(C#N)NC(=O)c1sc(Br)c(Br)c1F (stereo not drawn) [1.1010] | 3.54^[a] | 
CC(C)C(C#N)NC(=O)c1sc(Cl)c(Cl)c1Br (stereo not drawn) [1.1013] | 3.84^[a] | 
N#CC1(NC(=O)c2sc(Cl)c(Cl)c2Br)CCC1 [1.1014] | 3.37^[a] | 
Cc1c(C(=O)NC2(C#N)CCC2)sc(C#N)c1Br [1.1015] | 2.64^[a] | 
Cc1c(C(=O)NC(C#N)C(C)C)sc(C#N)c1Br (stereo not drawn) [1.1016] | 3.03^[a] | 
O=C(NC1(C(=O)O)CCC1)c1sc(Cl)c(Cl)c1Br [1.1017] | 2.95^[a] | 
O=C(CNC(=O)c1sc(Br)c(Br)c1F)OC1CCOCC1 [1.1018] | 2.80^[a] | 
COC(=O)C(C)(C)NC(=O)c1sc(Cl)c(Br)c1Cl [1.1019] | 3.73^[a] | 
COC(=O)C(C)(C)NC(=O)c1sc(Br)c(Br)c1Cl [1.1020] | 3.75^[a] | 
COC(=O)C(C)(C)NC(=O)c1sc(Cl)c(Cl)c1Br [1.1021] | 3.71^[a] | 
CC(C)(NC(=O)c1sc(Cl)c(Br)c1Cl)C(=O)O [1.1022] | 2.80^[a] | 

SMILES | LogP [1] | further results
CC(C)(NC(=O)c1sc(Br)c(Br)c1Cl)C(=O)O [1.1023] | 2.81^[a] | 
CC(C)(NC(=O)c1sc(Cl)c(Cl)c1Br)C(=O)O [1.1024] | 2.80^[a] | 
COC(=O)C(CCSC(C)=O)NC(=O)c1sc(Br)c(Br)c1Cl (stereo not drawn) [1.1025] | 3.98^[a] | 
O=C(CNC(=O)c1sc(Br)c(Br)c1F)OCC(F)(F)F [1.1026] | 3.40^[a] | 
C[Si](C)(C)COC(=O)CNC(=O)c1sc(Br)c(Br)c1F [1.1027] | 4.40^[a] | 
COC(=O)C(CCSC(C)=O)NC(=O)c1sc(Cl)c(Cl)c1Br (stereo not drawn) [1.1028] | 3.98^[a] | 
O=C(O)C(NC(=S)c1sc(Br)c(Br)c1F)C1CC1 (stereo not drawn) [1.1029] | 3.45^[a] | 
O=C(O)CNC(=S)c1sc(Cl)c(Cl)c1I [1.1030] | 3.13^[a] | 
CCOC(=O)C1(NC(=O)c2sc(C#N)c(Cl)c2Cl)CSC1 [1.1041] | 3.23^[a] | 
COC(=O)[C@H](CC(=O)O)NC(=O)c1sc(Br)c(Br)c1F [1.1043] | 2.28^[a] | 
COC(=O)[C@H](CC(=O)O)NC(=O)c1sc(Cl)c(Cl)c1Br [1.1044] | 2.58^[a] | 
CNC(=O)CNC(=O)c1sc(Br)c(Br)c1Cl [1.1045] | 2.07^[a] | 
CCOC(=O)C1(NC(=O)c2sc(Br)c(Cl)c2Cl)CSC1 [1.1046] | 3.94^[a] | 
COC(=O)[C@H](CC(N)=O)NC(=O)c1sc(Cl)c(Cl)c1Br [1.1047] | 2.23^[a] | 
COC(=O)[C@H](CCC(N)=O)NC(=O)c1sc(Br)c(Br)c1F [1.1048] | 2.05^[a] | 
COC(=O)[C@H](CCC(N)=O)NC(=O)c1sc(Cl)c(Cl)c1Br [1.1049] | 2.25^[a] | 
COC(=O)[C@H](CCC(=O)O)NC(=O)c1sc(Cl)c(Cl)c1Br [1.1050] | 2.68^[a] | 
CCOC(=O)C1(NC(=O)c2sc(Br)c(Br)c2C#N)CSC1 [1.1051] | 3.15^[a] | 
CCOC(=O)C1(NC(=O)c2sc(Br)c(Br)c2C(F)F)CSC1 [1.1052] | 3.58^[a] | 
COC(=O)C(C)(C)NC(=O)c1sc(C#N)c(Br)c1Br [1.1053] | 3.34^[a] | 
CCOC(=O)C1(NC(=O)c2sc(Cl)c(Cl)c2C#N)CSC1 [1.1054] | 3.05^[a] | 
N#CC1(NC(=O)c2sc(Br)c(Br)c2Cl)CCCSC1 (stereo not drawn) [1.1055] | 3.85^[a] | 
N#CC1(NC(=O)c2sc(Br)c(Br)c2F)CCCSC1 (stereo not drawn) [1.1056] | 3.41^[a] | 
CCOC(=O)C1(NC(=O)c2sc(Cl)c(Br)c2C)CSC1 [1.1057] | 3.66^[a] | 

SMILES | LogP [1] | further results
N#CCNC(=O)c1sc(C#N)c(Br)c1Br [1.1058] | 2.12^[a] | 
CCOC(=O)C1(NC(=O)c2sc(Cl)c(Cl)c2C(F)F)CSC1 [1.1059] | 3.55^[a] | 
CCOC(=O)C1(NC(=O)c2sc(Cl)c(Br)c2Br)CSC1 [1.1060] | 3.91^[a] | 
COC(=O)C(C)(C)NC(=O)c1sc(Br)c(Br)c1C(F)F [1.1061] | 3.21^[a] | 
CCOC(=O)C(C)(C)NC(=O)c1sc(Cl)c(Cl)c1Br [1.1062] | 4.24^[a] | 
CCOC(=O)C1(NC(=O)c2sc(Br)c(Cl)c2C)CSC1 [1.1063] | 3.62^[a] | 
CCOC(=O)C(CO)NC(=O)c1sc(Br)c(Br)c1C(F)F (stereo not drawn) [1.1064] | 2.63^[a] | 
COC(=O)C(CCSC)NC(=O)c1sc(Br)c(Br)c1C(F)F (stereo not drawn) [1.1065] | 3.55^[a] | 
COC(=O)C(NC(=O)c1sc(Br)c(Br)c1C(F)F)C(=O)OC [1.1067] | 3.05^[a] | 
CCOC(=O)C(CO)NC(=O)c1sc(Cl)c(Cl)c1C(F)F (stereo not drawn) [1.1068] | 2.67^[a] | 
COC(=O)C(CCSC)NC(=O)c1sc(Cl)c(Cl)c1C(F)F (stereo not drawn) [1.1069] | 3.52^[a] | 
COC(=O)C(C)(C)NC(=O)c1sc(Cl)c(Cl)c1C(F)F [1.1070] | 3.16^[a] | 
O=C(NC1CCSC1=O)c1sc(Br)c(Br)c1F (stereo not drawn) [I.0006] |  | LogP [2]: 2.84^[a]
O=C(N[C@H]1CCSC1=O)c1sc(Br)c(Br)c1F [I.0017] |  | LogP [2]: 2.89^[a]
Cc1c(C(=O)NC2CCSC2=O)sc(Cl)c1Br (stereo not drawn) [I.0023] |  | LogP (method [a]: LC-UV, acidic range, 0.1% formic acid in water and acetonitrile, listed as 1.0023): 2.99^[a]
CCOC(=O)CNC(=O)c1sc(C#N)c(Br)c1C [I.0024, ethyl N-[(4-bromo-5-cyano-3-methyl-2-thienyl)carbonyl]glycinate] |  | chromatographic logP: 2.4
O=C(NC1CCOC1=O)c1sc(Br)c(Br)c1F (stereo not drawn) [I.0060] |  | LogP (method [a]: LC-UV, acidic range, 0.1% formic acid in water and acetonitrile, listed as 1.0060): 2.25^[a]
O=C(NC1CCCNC1=O)c1sc(Br)c(Br)c1F (stereo not drawn) [I.0061] |  | LogP [2]: 2.01^[a]
CC[C@H](C)[C@H](NC(=O)c1sc(Cl)c(Br)c1C)C(=O)OC [I.0123] |  | LogP [2]: 4.27^[a]
CCSC(=O)C1(NC(=O)c2sc(Br)c(Br)c2I)CC1 [I.0139, S-ethyl 1-{[(4,5-dibromo-3-iodo-2-thienyl)carbonyl]amino}cyclopropanecarbothioate] |  | chromatographic logP: 3.96
CC[C@H](C)[C@H](NC(=O)c1sc(Br)c(Br)c1F)C(=O)OC [I.0141] |  | LogP [2]: 4.37^[a]
